One data set has as its target CYP2C19 (Homo sapiens, UniProt P33261). As to the kind of experiment: Metabolism by CYP2C19 (CLint, fm). The format is in vitro ADME. The text has this: (§1) In nearly all cases the fraction of systemic elimination metabolised by a given enzyme (fm) determined in vitro was unavailable in the literature.
For data set [1] the following is noted: cited from earlier work.
The nature of data set [2]: PBPK absorption inputs (fa, ka, tlag, Qgut, Fg). Particulars: derived from ascending dose studies, McCarthy et al., 2017. The arrangement: species or system human. The text has this:
Initial models were built based on available physicochemical and in vitro data to give a ‘bottom-up’ prediction. Areas of uncertainty were highlighted, and the potential impact of uncertainty associated with such parameters was investigated using sensitivity analysis. Available clinical PK data were then used to evaluate and, if required, refine the initial ‘bottom-up’ model. Care was taken to split data into training and test sets wherever possible. The model verification strategy differed across compounds based on availability of different types of clinical data. […] Clinical studies used for drug model development and verification are reported in Table S2 (PK) and Table S3 (DDIs).

A short description of data set [3]: Fraction unbound in human liver microsomes (fumic). Particulars: method of Austin et al., 2002. On the technique in general: Liver microsomes are vesicles of endoplasmic reticulum, rich in cytochrome P450 enzymes.
The next data set relates to Caco-2 cells. Particulars: calibrated against propranolol; plasma as medium for atovaquone and piperaquine; ref Charman et al., 2020 1; cited from earlier work.
The target of data set [4] is T1, CYP2C8 (Homo sapiens, UniProt P10632).
T1 sequence (P10632 1-490): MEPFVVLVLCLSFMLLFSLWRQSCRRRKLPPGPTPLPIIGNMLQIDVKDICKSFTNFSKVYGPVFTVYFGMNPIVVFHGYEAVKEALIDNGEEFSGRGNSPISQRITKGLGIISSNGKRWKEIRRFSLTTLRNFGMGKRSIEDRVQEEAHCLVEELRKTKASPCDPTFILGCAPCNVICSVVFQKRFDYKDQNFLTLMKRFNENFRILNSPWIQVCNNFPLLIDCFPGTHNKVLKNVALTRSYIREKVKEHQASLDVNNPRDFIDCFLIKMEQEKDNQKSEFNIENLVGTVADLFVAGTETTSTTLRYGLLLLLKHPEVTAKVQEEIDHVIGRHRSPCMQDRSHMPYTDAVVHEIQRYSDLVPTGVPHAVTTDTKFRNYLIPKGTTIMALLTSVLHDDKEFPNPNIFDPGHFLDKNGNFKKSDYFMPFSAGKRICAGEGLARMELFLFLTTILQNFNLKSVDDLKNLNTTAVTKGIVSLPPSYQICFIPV
Put plainly: Metabolism by CYP2C8 (CLint, fm).
Description: as §1

For data set [5] the following is noted: PBPK input; ref Charman et al., 2020 1; cited from earlier work.
Data set [6] is described as follows: Blood to plasma ratio (B:P). Conditions: PBPK input; unpublished (in-house) data.
The nature of data set [7]: Fraction unbound in plasma (fu), main binding protein. Particulars: PBPK input; unpublished (in-house) data.
For data set [8], the target named is T1, CYP2C8. Put plainly: biochemical.
For data set [9], the target named is T1, CYP2C8.
Data set [10] in a line: In vitro flags for victim and perpetrator properties conferring DDI liability. The format is in vitro ADME, human. Particulars: in vitro flag, mainly based on in vitro determinations.
Data set [11] is described as follows: In vivo clearance (CL IV, CL PO, CL renal, fe). Conditions: rat, after IV dose.
A further data set in a line: in vitro. Particulars: human, Caco-2.
The target in the next data set is CYP3A4 (Homo sapiens, UniProt P08684).
Chain of CYP3A4 (P08684 whole entry): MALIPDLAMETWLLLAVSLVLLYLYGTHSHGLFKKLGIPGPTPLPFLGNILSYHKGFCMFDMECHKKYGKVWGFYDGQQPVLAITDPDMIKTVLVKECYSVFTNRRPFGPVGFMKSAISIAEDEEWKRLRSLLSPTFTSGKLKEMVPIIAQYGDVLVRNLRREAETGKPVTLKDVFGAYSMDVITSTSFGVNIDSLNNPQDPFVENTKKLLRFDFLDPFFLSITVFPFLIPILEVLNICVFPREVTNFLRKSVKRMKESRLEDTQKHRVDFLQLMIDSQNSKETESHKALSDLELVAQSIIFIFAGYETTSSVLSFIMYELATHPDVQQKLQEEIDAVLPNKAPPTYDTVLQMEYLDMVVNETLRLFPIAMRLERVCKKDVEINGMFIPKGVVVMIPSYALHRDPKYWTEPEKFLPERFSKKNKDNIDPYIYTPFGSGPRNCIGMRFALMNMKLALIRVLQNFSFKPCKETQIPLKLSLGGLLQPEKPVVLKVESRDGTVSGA
Description: as §1

The target in the next data set is T2, UGT1A1 (Homo sapiens, UniProt P22309).
T2 sequence (P22309 26-533): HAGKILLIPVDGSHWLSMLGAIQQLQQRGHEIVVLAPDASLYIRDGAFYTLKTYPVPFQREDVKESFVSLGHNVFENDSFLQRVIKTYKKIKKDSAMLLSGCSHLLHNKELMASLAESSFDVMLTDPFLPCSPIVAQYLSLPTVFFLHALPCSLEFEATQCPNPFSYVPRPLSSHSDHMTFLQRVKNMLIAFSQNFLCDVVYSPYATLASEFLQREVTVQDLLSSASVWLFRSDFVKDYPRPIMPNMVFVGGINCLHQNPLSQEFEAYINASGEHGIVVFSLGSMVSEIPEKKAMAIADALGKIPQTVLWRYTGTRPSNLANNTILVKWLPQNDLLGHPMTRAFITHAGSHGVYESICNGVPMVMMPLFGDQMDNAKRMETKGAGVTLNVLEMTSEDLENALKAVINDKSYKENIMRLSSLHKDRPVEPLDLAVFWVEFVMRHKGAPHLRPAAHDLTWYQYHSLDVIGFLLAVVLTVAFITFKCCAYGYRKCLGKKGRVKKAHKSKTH
Put plainly: Metabolism by UGT1A1. Format: in vitro ADME.
Description: as §1

For data set [12] the following is noted: clinically observed oral (in vivo) clearance; pyronaridine: blood; ref amodiaquine Winstanley et al., 1987 9; DEAQ Akande et al., 2015 8, Scarsi et al., 2014 35, Tarning et al., 2012 36, Orrell et al., 2008 37; DHA Na-Bangchang et al., 2004 42; lumefantrine Lefevre et al., 2002 52, Hoglund et al., 2015 53; mefloquine Charles et al., 2007 56; proguanil Jeppesen et al., 1997 34; pyronaridine Jittama; cited from earlier work.

Where “and” joins values, the source holds several entries; their conditions need not be identical. Identical values can stand only once. Like-named read-outs stand apart in the source and are kept apart here.

Broadly, the Log P is a log measure of how a compound divides between an organic and an aqueous phase. As usually defined, the Ki is the equilibrium dissociation constant of an inhibitor or competing ligand from its target. What is called Papp A→B is the apparent permeability from the apical to the basolateral side of a cell layer.

Chain of CYP2C19 (P33261 whole entry): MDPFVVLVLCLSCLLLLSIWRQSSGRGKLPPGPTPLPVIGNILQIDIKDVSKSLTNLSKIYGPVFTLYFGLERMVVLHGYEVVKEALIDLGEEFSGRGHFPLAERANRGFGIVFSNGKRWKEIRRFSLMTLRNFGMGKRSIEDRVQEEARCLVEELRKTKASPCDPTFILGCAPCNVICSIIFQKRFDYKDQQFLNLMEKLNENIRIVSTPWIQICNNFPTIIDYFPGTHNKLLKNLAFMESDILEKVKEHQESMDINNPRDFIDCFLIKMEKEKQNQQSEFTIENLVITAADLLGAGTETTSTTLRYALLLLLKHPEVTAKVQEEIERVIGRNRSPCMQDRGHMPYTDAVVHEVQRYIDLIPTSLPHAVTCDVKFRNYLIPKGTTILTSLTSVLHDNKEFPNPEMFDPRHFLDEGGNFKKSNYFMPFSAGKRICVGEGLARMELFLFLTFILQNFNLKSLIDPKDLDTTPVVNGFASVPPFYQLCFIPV

Consider `Cc1cc(Nc2ccc(S(F)(F)(F)(F)F)cc2)n2nc(C(C)(F)F)nc2n1` [DSM265], for which the “CLint CYP2C19” value on CYP2C19 (Unpublished MMV in house data) turned out to be 1.751 µL/min/pmol. Moreover, the fmCYP2C19 at CYP2C19 (fraction metabolised used in the PBPK model (proguanil: total, all routes)) was 30% and ~ 30%. Moreover, the “AUC Obs” value in data set [1] (DSM265 400 mg SD, 0-inf, ref McCarthy et al., 2017 46) is 1210 µg·h/mL; in [1] (DSM265 600 mg SD, 0-inf, ref McCarthy et al., 2017 46) it was 2140 µg·h/mL; in data set [1] (DSM265 800 mg SD, 0-inf, ref McCarthy et al., 2017 46) it was 2220 µg·h/mL; in [1] (DSM265 1200 mg SD, 0-inf, ref McCarthy et al., 2017 46), 4720 µg·h/mL. Moreover, the “Cmax Obs” value is given as 11500 ng/mL in data set [1] (DSM265 400 mg SD, ref McCarthy et al., 2017 46); 15500 ng/mL in data set [1] (DSM265 600 mg SD, ref McCarthy et al., 2017 46); 19100 ng/mL in data set [1] (DSM265 800 mg SD, ref McCarthy et al., 2017 46); 34800 ng/mL in [1] (DSM265 1200 mg SD, ref McCarthy et al., 2017 46). In addition, the fa in [2] (doses 400 mg and above) was 0.7; in data set [2] (doses 25 - 250 mg), 1. The fumic in data set [3] (extrapolated from value measured at 0.4 mg/mL to 0.1 mg/mL) is 0.61; in data set [3] (for CYP2C8 Ki, extrapolated from 0.4mg/mL to 0.2 mg/mL), 0.44. In addition, the “Caco-2 (Papp A-B)” value in the data set on Caco-2 cells is 61 10-6 cm/s. On CYP2C8 [4] (Unpublished MMV in house data), the “CLint CYP2C8” value is 2.384 µL/min/pmol. Moreover, the fmCYP2C8 on CYP2C8 [4] (fraction metabolised used in the PBPK model) is 70% and ~ 70%. Moreover, in data set [5], the “Log P” value is reported as 4.03. Besides, in data set [6], the “B:P” value was found to be 0.70. The compound further registered a fu in [7] of 0.001. Moreover, the Ki at CYP2C8 [8] is 3100 nM and 1180 nM.
In turn, `CC(F)(F)c1nc2nc(CO)cc(Nc3ccc(S(F)(F)(F)(F)F)cc3)n2n1` [DSM450] displayed a Ki at CYP2C8 [9] of 4.46 µM. Also, the “AUC Obs” value was 271 µg·h/mL in data set [1] (in vivo, 400 mg); 477 µg·h/mL in [1] (in vivo, 600 mg); 454 µg·h/mL in [1] (in vivo, 800 mg); 1170 µg·h/mL in data set [1] (in vivo, 1200 mg). Moreover, the “Cmax Obs” value in [1] (in vivo, 400 mg) is listed as 1070 ng/mL; in [1] (in vivo, 600 mg), 1380 ng/mL; in data set [1] (in vivo, 800 mg), 1920 ng/mL; in [1] (in vivo, 1200 mg) it was 3070 ng/mL.
Regarding `CS(=O)(=O)c1ccc(-c2cnc(N)c(-c3ccc(C(F)(F)F)nc3)c2)cc1` [MMV048], the “Risk as a perpetrator” value in [10] is “No risk has been identified as a perpetrator”. In addition, the “AUC Obs” value in data set [1] (40 mg SD, 0-inf, ref McCarthy et al., 2020 47) was 30.32 µg·h/mL; in [1] (80 mg SD, 0-inf, ref McCarthy et al., 2020 47), 82.68 µg·h/mL; in [1] (120 mg SD, 0-inf, ref McCarthy et al., 2020 47), 137.8 µg·h/mL. The “Cmax Obs” value was 272.7 ng/mL in [1] (40 mg SD, ref McCarthy et al., 2020 47); 561.0 ng/mL in data set [1] (80 mg SD, ref McCarthy et al., 2020 47); 1094.0 ng/mL in [1] (120 mg SD, ref McCarthy et al., 2020 47). Besides, in [11], the “dose recovered in urine” value is 0.2 % of dose. In addition, the Papp A→B in the data set “in vitro” was found to be 44 ×10⁻⁶ cm/s. Also, the fmCYP3A4 at CYP3A4 was determined as 10%. Moreover, the “CLint CYP3A4” value at CYP3A4 (microsomes) is given as 0.13 µL/min/pmol. In addition, at UGT1A1 (Derived from CL PO using retrograde calculations), the “CLint UGT1A1” value is recorded as 1.13 µL/min/pmol. For the same compound, at UGT1A1 (allocation of clearance, based on in vitro data), the “fm UGT1A1” value is on record as 90%. Besides, the “fm by UGT1A1” value at UGT1A1 (fraction metabolized) is 0.9. Moreover, the “B:P” value in [6] was determined as 0.9. For the same compound, in data set [7], the fu was determined as 0.145. Further, the “CL PO” value in data set [12] was 0.82 L/h.

The values above are taken from paper PMC10508484, “Development and application of a PBPK modeling strategy to support antimalarial drug development” (CPT: Pharmacometrics & Systems Pharmacology, 2023).
